# In patent publication US4231923A, “Assay method and compounds” (Burroughs Wellcome Co., priority 1977, dated 1980):
# Target: Opiate receptor
# Experiment: Opiate receptor binding (IC50) by the method of Pasternak et al. using tritiated naloxone, absence of sodium ions
# Details: method indicated in Example 1 (tritiated naloxone, absence of sodium ions, 4° C., pH 7.4); Table 2
# Procedure: *Method of Pasternak, G. W. et al., Molecular Pharmacology, 11, 340-351
# (1975) using tritiated naloxone and in the absence of sodium ions; assays
# trishydrochloric acid buffer (50 mM, pH 7.4).
# (§1) The opiate receptor IC50 (M) was ascertained by the method indicated in Example 1.
# as §1
substance,measurement,value
H.Try.Gly.Gly.Phe.D-Met.OMe HCl [(Y)],IC50,0.06 µM
